Laboratory results taken from patent US11098042B2, “Inhibitors of influenza virus replication and uses thereof” (SUNSHINE LAKE PHARMA CO., LTD., priority 2017, dated 2021).

Assays:
virus H1N1 A/Weiss/43 = assay: microbe, parasite or virus in culture; format: cell-based; settings: Influenza A virus, 120 h; inhibition of CPE of H1N1 A/Weiss/43 in MDCK cells, 5 days, CCK-8
in vivo = settings: Sprague-Dawley (SD), rat
Method: Pharmacokinetic characteristics of the compounds of the invention in SD rat were evaluated. The compounds disclosed herein were administered in form of a saline solution containing 5% DMSO, 5% Kolliphor HS 15 and 90% Saline. For intravenous administration (iv), the animals were administered with a dose of 1 mg/kg, and blood samples (0.3 mL) were collected at the time points of 0.083, 0.25, 0.5, 1.0, 2.0, 5.0, 7.0 and 24 h after drug administration, then each blood sample was processed to separate plasma by centrifugation at 3000 rpm or 4000 rpm for 10 minutes. […] Plasma samples were collected and stored at −20° C. or −70° C. until LC/MS/MS analysis.

Row | SMILES | EC50 (virus H1N1 A/Weiss/43) | further results
1 | O=C(O)C1C2CCC(CC2)C1Nc1cc(-c2ccco2)nc(-c2n[nH]c3ncc(Cl)cc23)n1 (racemic) [Example 1, (+/−)-trans-3-((2-(5-chloro-1H-pyrazolo[3,4-b]pyridin-3-yl)-6-(furan-2-yl)pyrimidin-4-yl)amino)bicyclo[2.2.2]octane-2-carboxylic Acid] | 0.059 nM | –
2 | O=C(O)C1C2CCC(CC2)C1Nc1nc(-c2n[nH]c3ncc(Cl)cc23)nc(-c2ccco2)c1F (racemic) [Example 2, (+/−)-trans-3-((2-(5-chloro-1H-pyrazolo[3,4-b]pyridin-3-yl)-5-fluoro-6-(furan-2-yl)pyrimidin-4-yl)amino)bicyclo[2.2.2]octane-2-carboxylic Acid] | 0.054 nM | AUC(0-inf) (in vivo; iv, 1 mg/kg): 910 ng·h/mL; AUC(0-t) (in vivo; iv, 1 mg/kg): 909 ng·h/mL; clearance (in vivo; iv, 1 mg/kg): 18.5 mL/min/kg; AUC(0-inf) (in vivo; po, 5 mg/kg): 1060 ng·h/mL; AUC(0-t) (in vivo; po, 5 mg/kg): 1060 ng·h/mL
3 | Cn1ccc2c(NC3C4CCC(CC4)C3C(=O)O)nc(-c3n[nH]c4ncc(Cl)cc34)nc21 (racemic) [Example 3, (+/−)-trans-3-((2-(5-chloro-1H-pyrazolo[3,4-b]pyridin-3-yl)-7-methyl-7H-pyrrolo[2,3-d]pyrimidin-4-yl)amino)bicyclo[2.2.2]octane-2-carboxylic Acid] | 0.39 nM | –
4 | O=C(O)C1C2CCC(CC2)C1Nc1cc(-c2cc3ccccc3o2)nc(-c2n[nH]c3ncc(Cl)cc23)n1 (racemic) [Example 14, (+/−)-trans-3-((6-(benzofuran-2-yl)-2-(5-chloro-1H-pyrazolo[3,4-b]pyridin-3-yl)pyrimidin-4-yl)amino)bicyclo[2.2.2]octane-2-carboxylic Acid] | 0.696 nM | –
5 | O=C(O)C1C2CCC(CC2)C1Nc1cc(-c2ccccc2)nc(-c2n[nH]c3ncc(Cl)cc23)n1 (racemic) [Example 16, (+/−)-trans-3-((2-(5-chloro-1H-pyrazolo[3,4-b]pyridin-3-yl)-6-phenylpyrimidin-4-yl)amino)bicyclo[2.2.2]octane-2-carboxylic Acid] | 0.14 nM | –
6 | O=C(O)C1C2CCC(CC2)C1Nc1cc(-c2cccs2)nc(-c2n[nH]c3ncc(Cl)cc23)n1 (racemic) [Example 29, (+/−)-trans-3-((2-(5-chloro-1H-pyrazolo[3,4-b]pyridin-3-yl)-6-(thiophen-2-yl)pyrimidin-4-yl)amino)bicyclo[2.2.2]octane-2-carboxylic Acid] | 0.203 nM | –
7 | O=C(O)C1C2CCC(CC2)C1Nc1cc(C2CC2)nc(-c2n[nH]c3ncc(Cl)cc23)n1 (racemic) [Example 30, (+/−)-trans-3-((2-(5-chloro-1H-pyrazolo[3,4-b]pyridin-3-yl)-6-cyclopropylpyrimidin-4-yl)amino)bicyclo[2.2.2]octane-2-carboxylic Acid] | 0.35 nM | –
8 | O=C(O)C1C2CCC(CC2)C1Nc1cc(-c2ccc3ccccc3c2)nc(-c2n[nH]c3ncc(Cl)cc23)n1 (racemic) [Example 31, (+/−)-trans-3-((2-(5-chloro-1H-pyrazolo[3,4-b]pyridin-3-yl)-6-(naphthalene-2-yl)pyrimidin-4-yl)amino)bicyclo[2.2.2]octane-2-carboxylic Acid] | 0.513 nM | –
9 | CC(C)(C)[C@@H](CC(=O)O)Nc1nc(-c2n[nH]c3ncc(Cl)cc23)nc(-c2ccco2)c1F [Example 4, (R)-3-((2-(5-chloro-1H-pyrazolo[3,4-b]pyridin-3-yl)-5-fluoro-6-(furan-2-yl)pyrimidin-4-yl)amino)-4,4-dimethylpentanoic Acid] | 0.075 nM | –
10 | O=C(O)[C@H]1C2CCC(CC2)[C@@H]1Nc1cc(-c2ccc(C3CC3)o2)nc(-c2n[nH]c3ncc(F)cc23)n1 [Example 15, (2S,3S)-3-((6-(5-cyclopropylfuran-2-yl)-2-(5-fluoro-1H-pyrazolo[3,4-b]pyridin-3-yl)pyrimidin-4-yl)amino)bicyclo[2.2.2]octane-2-carboxylic Acid] | 0.303 nM | –
11 | CC(C)n1ccc2c(N[C@H]3C4CCC(CC4)[C@@H]3C(=O)O)nc(-c3n[nH]c4ncc(F)cc34)nc21 [Example 34, (2S,3S)-3-((2-(5-fluoro-1H-pyrazolo[3,4-b]pyridin-3-yl)-7-isopropyl-7H-pyrrolo[2,3-d]pyrimidin-4-yl)amino)bicyclo[2.2.2]octane-2-carboxylic Acid] | 0.227 nM | –
